Test results: patent US20210300940A1 (Merck Patent GmbH, priority 2018, published 2021)
Where a name gives a salt, the structure may show the parent alone.

Tests used:
TLR7 = target: T1, TLR7 (Homo sapiens, UniProt Q9NYK1); assay: HEK/293 TLR7 Cell Assay; type: cell-based; conditions: TLR7/NFKb HEK cells, R848 agonist 10 uM final concentration, Steady-Glo readout; read-out: TLR7 potency
T1 construct: expressed in transfected cells; host or cells: HEK/293 cells carrying TLR7 and an NF-kB luciferase reporter
T1 sequence (Q9NYK1 27-1049): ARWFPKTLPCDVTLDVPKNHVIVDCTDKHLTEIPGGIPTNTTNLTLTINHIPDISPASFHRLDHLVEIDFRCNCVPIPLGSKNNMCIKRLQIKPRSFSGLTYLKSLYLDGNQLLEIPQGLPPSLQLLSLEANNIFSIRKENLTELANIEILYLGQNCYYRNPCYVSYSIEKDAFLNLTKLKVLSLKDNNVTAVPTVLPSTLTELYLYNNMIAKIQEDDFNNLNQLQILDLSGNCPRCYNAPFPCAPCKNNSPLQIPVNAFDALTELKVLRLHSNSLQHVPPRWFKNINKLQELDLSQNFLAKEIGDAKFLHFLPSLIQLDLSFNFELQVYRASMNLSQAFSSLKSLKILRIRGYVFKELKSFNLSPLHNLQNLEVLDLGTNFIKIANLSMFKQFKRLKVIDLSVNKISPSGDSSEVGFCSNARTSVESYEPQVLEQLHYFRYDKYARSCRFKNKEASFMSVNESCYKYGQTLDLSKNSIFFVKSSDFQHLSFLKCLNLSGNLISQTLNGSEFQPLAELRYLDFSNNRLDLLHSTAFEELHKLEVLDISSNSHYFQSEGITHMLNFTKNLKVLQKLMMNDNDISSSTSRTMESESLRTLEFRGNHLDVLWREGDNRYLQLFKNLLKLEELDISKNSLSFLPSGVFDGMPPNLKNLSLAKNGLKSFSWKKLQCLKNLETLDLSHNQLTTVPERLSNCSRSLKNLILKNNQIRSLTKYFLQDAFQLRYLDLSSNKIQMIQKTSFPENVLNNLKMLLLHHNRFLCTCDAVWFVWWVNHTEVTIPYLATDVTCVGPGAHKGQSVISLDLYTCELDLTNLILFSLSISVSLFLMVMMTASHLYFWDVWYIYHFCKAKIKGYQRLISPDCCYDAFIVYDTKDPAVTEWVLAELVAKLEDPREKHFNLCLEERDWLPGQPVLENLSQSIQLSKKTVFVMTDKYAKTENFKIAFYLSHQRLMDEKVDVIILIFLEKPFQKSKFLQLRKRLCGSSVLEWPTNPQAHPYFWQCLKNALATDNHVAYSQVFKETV
Method in brief: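 TLR7/NF-κB reporter HEK293 cells, 5000/well, cultured 24 h, then preincubated 30 min with compound before R848 agonist (10 uM final). After 5 h stimulation, Steady-Glo luciferase luminescence read.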

TLR8 = target: T2, TLR8 (Homo sapiens, UniProt Q9NR97); assay: HEK/293 TLR8 Cell Assay; type: cell-based; conditions: HEK cells, R848 agonist 30 uM final concentration, Steady-Glo readout; read-out: TLR8 potency
T2 construct: expressed in transfected cells; host or cells: HEK/293 reporter cells (NF-kB luciferase)
T2 sequence (Q9NR97 27-1041): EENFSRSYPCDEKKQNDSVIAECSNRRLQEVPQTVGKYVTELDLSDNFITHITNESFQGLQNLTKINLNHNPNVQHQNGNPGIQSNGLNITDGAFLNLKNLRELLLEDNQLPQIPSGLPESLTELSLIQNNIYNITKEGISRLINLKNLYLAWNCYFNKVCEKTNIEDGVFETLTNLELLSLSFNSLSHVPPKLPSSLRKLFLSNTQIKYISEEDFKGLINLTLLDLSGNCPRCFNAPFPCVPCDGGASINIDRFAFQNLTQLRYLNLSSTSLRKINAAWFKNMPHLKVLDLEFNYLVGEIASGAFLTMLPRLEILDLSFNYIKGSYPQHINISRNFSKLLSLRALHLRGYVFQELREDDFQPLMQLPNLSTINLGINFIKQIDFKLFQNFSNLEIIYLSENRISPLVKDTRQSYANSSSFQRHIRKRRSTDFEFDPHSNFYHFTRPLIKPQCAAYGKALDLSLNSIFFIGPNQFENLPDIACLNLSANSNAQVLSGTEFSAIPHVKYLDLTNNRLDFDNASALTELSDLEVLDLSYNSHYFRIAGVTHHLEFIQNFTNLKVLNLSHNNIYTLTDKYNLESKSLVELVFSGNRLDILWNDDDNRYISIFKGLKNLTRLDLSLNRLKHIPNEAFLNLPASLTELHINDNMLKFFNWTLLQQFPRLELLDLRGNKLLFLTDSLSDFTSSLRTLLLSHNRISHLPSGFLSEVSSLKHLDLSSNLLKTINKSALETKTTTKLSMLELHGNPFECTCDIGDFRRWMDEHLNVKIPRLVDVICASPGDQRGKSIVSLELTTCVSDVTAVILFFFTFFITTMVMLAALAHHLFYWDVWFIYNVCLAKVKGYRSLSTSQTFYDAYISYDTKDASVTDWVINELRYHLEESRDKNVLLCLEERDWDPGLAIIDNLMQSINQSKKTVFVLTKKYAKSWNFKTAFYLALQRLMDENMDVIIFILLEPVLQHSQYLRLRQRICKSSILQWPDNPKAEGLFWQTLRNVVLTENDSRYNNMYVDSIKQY

Structure (SMILES)	IC50 (TLR7) [nM]	IC50 (TLR8) [nM]
N#Cc1ccc(N2C[C@H](NC(=O)C(O)CO)C[C@H](C(F)(F)F)C2)c2cccnc12 (stereo partly drawn) [Example 60, N-[(3R,5S)-1-(8-Cyano-quinolin-5-yl)-5-trifluoromethyl-piperidin-3-yl]-2,3-dihydroxy-propionamide]	< 75	< 75
CN1CCC(C(=O)N[C@@H]2C[C@H](C(F)(F)F)CN(c3ccc(C#N)c4ncccc34)C2)CC1 [Example 61, 1-Methyl-piperidine-4-carboxylic acid [(3R,5S)-1-(8-cyano-quinolin-5-yl)-5-trifluoromethyl-piperidin-3-yl]-amide]	< 75	< 75
C[C@@H]1CN(c2cnc(C(F)(F)F)c3ncccc23)C[C@H](CNC[C@H]2CN(C)CCO2)O1 (single isomer, unassigned) [Example 385]	> 150	< 75
C[C@H]1C[C@@H](NC(=O)CC2(F)CCN(C)CC2)CN(c2ccc(C(F)(F)F)c3ncccc23)C1 [Example 83, 2-(4-fluoro-1-methylpiperidin-4-yl)-N-[(3R,5S)-5-methyl-1-[8-(trifluoromethyl)quinolin-5-yl]piperidin-3-yl]acetamide]	< 75	< 75
C[C@H]1C[C@@H](NC(=O)CC2(F)CCN(C)CC2)CN(c2ccc(C#N)c3ncncc23)C1 [Example 88, N-[(3R,5S)-1-(8-cyanoquinazolin-5-yl)-5-methylpiperidin-3-yl]-2-(4-fluoro-1-methylpiperidin-4-yl)acetamide]	< 75	< 75
C[C@H]1C[C@@H](n2ccnn2)CN(c2ccc(C(F)(F)F)c3nccnc23)C1 (racemic) [Example 154, 5-[cis-3-methyl-5-(1H-1,2,3-triazol-1-yl)piperidin-1-yl]-8-(trifluoromethyl)quinoxaline]	> 150	75 to 150
C[C@H](N)C(=O)N[C@@H]1C[C@H](C(F)(F)F)CN(c2ccc(C(F)(F)F)c3ncccc23)C1 [Example 171, (S)-2-Amino-N-[(3R,5S)-5-trifluoromethyl-1-(8-trifluoromethyl-quinolin-5-yl)-piperidin-3-yl]-propionamide]	< 75	< 75
C[C@H]1C[C@@H](NC(=O)[C@@H](O)C(C)(C)O)CN(c2ccc(C#N)c3nccnc23)C1 [Example 161, (S)—N-[(3R,5S)-1-(8-Cyano-quinoxalin-5-yl)-5-methyl-piperidin-3-yl]-2,3-dihydroxy-3-methyl-butyramide]	< 75	< 75
CC(C(=O)N[C@@H]1C[C@H](C(F)(F)F)CN(c2ccc(C#N)c3nccnc23)C1)N1CCN(C)CC1 (single isomer, unassigned) [Example 98]	< 75	< 75
C[C@@H]1CN(c2cnc(C#N)c3ncccc23)C[C@H](CNC(=O)C2(F)CCCNC2)O1 (stereo partly drawn) [Example 333, N-{[(2S,6R)-4-(8-cyano-1,7-naphthyridin-5-yl)-6-methylmorpholin-2-yl]methyl}-3-fluoropiperidine-3-carboxamide]	75 to 150	< 75
C[C@@H](O)CNC(=O)[C@@H]1CN(c2ccc(C#N)c3nccnc23)C[C@H](C(F)(F)F)O1 (single isomer, unassigned) [Example 279]	75 to 150	> 150
C[C@@H]1CN(c2ccc(C#N)c3nccnc23)C[C@H](CSC2CNC2)O1 [Example 225, 8-[(2R,6R)-2-(Azetidin-3-ylsulfanylmethyl)-6-methyl-morpholin-4-yl]-quinoxaline-5-carbonitrile hydrochloride]	< 75	< 75
C[C@H]1C[C@@H](NCCNS(C)(=O)=O)CN(c2ccc(C(F)(F)F)c3ncccc23)C1 [Example 20, N-(2-{[(3R,5S)-5-methyl-1-[8-(trifluoromethyl)quinolin-5-yl]piperidin-3-yl]amino}ethyl)methanesulfonamide]	< 75	< 75
C[C@@H]1CN(c2ccc(C#N)c3ncncc23)C[C@H](C(=O)NC2CCN(C)C3(CCC3)C2)O1 (stereo partly drawn) [Example 347, (2R,6R)-4-(8-Cyano-quinazolin-5-yl)-6-methyl-morpholine-2-carboxylic acid (5-methyl-5-aza-spiro[3.5]non-8-yl)-amide]	< 75	< 75
C[C@@H]1CN(c2cnc(C#N)c3ncccc23)C[C@H](C(=O)NC[C@H]2CN(C)CCO2)O1 [Example 274, (2R,6R)-4-(8-Cyano-[1,7]naphthyridin-5-yl)-6-methyl-morpholine-2-carboxylic acid ((S)-4-methyl-morpholin-2-ylmethyl)-amide]	< 75	< 75
C[C@H]1C[C@@H](NC(=O)[C@H](O)CO)CN(c2ccc(C#N)c3nccnc23)C1 [Example 160, (R)—N-[(3R,5S)-1-(8-Cyano-quinoxalin-5-yl)-5-methyl-piperidin-3-yl]-2,3-dihydroxy-propionamide]	< 75	< 75
C[C@@H]1CN(c2cnc(C#N)c3ncccc23)C[C@H](CNC(=O)C2(F)CCNC2)O1 (stereo partly drawn) [Example 332, N-{[(2S,6R)-4-(8-cyano-1,7-naphthyridin-5-yl)-6-methylmorpholin-2-yl]methyl}-3-fluoropyrrolidine-3-carboxamide]	75 to 150	< 75
C[C@H]1C[C@@H](NC(=O)CCN)CN(c2ccc(C(F)(F)F)c3ncccc23)C1 [Example 166, 3-Amino-N-[(3R,5S)-5-methyl-1-(8-trifluoromethyl-quinolin-5-yl)-piperidin-3-yl]-propionamide]	75 to 150	< 75
N#Cc1ccc(N2C[C@@H](C(=O)NC[C@@H](O)CO)O[C@@H](C(F)(F)F)C2)c2nccnc12 (single isomer, unassigned) [Example 283]	> 150	> 150
Cc1ccc(N2C[C@@H](C)C[C@@H](NC(=O)CC3CCN(C(C)C)CC3)C2)c2cccnc12 [Example 108, 2-(1-Isopropyl-piperidin-4-yl)-N-[(3R,5S)-5-methyl-1-(8-methyl-quinolin-5-yl)-piperidin-3-yl]-acetamide]	< 75	< 75
CC(=O)NCCNC(=O)[C@H]1CN(c2ccc(C#N)c3nccnc23)C[C@@H](C)O1 [Example 243, (2R,6R)-4-(8-Cyano-quinoxalin-5-yl)-6-methyl-morpholine-2-carboxylic acid (2-acetylamino-ethyl)-amide]	75 to 150	> 150
C[C@H]1C[C@@H](NC(=O)Cc2cnn(C)c2)CN(c2cc(F)c(C#N)c3ncccc23)C1 [Example 58, N-[(3R,5S)-1-(8-Cyano-7-fluoro-quinolin-5-yl)-5-methyl-piperidin-3-yl]-2-(1-methyl-1H-pyrazol-4-yl)-acetamide]	> 150	75 to 150
